# Measured values as given in patent US9994533B2, “Method of preparing ATG's analogue, and the application of ATG and it's analogue” (Longhua Hospital Shanghai University of Traditional Chinese …, priority 2016, dated 2018).
# Molecular target: T1, PP2A (Homo sapiens, UniProt P62714)
# T1 construct: endogenous in cells; host or cells: 293T
# Assay: PP2A activity in 293T cells stimulated with ATG analogues
# Type: cell-based
# Settings: 10 μM, DMSO as reference, FIG. 11
# Procedure: The biological activities of the three compounds were determined by measuring the downstream PP2A activity and the degree of phosphorylation of NF-kB. […] The concentrations of ATG and the three new compounds were 10 μM.
# T1 sequence (P62714 whole entry): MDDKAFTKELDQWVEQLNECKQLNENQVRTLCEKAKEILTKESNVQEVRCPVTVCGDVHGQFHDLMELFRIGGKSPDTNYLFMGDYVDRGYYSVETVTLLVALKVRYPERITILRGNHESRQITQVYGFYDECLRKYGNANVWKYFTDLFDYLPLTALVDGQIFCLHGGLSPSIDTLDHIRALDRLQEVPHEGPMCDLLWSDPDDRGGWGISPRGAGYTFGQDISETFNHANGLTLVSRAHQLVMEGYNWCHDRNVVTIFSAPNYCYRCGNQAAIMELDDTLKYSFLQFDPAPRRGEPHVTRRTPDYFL
substance,measurement,value
"Potassium trifluoro (4-(5-(3,4,5-trimethoxyphenyl)-1,2,4-oxadiazol-3-yl) phenyl) borate [BT282]",effect on PP2A activity relative to native ATG,higher activity to PP2A than natural ATG
